Measurements published in patent US20160199463A1, “HDAC2 DEFENDS VASCULAR ENDOTHELIUM FROM INJURY” (The Johns Hopkins University, priority 2014, published 2016).

How the values were obtained:
HDAC1A = conditions: cited from earlier work
Arg2 = Arg2 protein expression in HAECs (Western blot); type: cell-based, human; conditions: MS275 2 μmol/L; CI994 1 μmol/L; MC1568 0.5 μmol/L; PC34051 100 nmol/L; MGCD0103 1 μmol/L
Experimental: After 48 hrs of HAEC cells transfection, cells were lysed in ice cold RIPA lysis buffer consisting of 20 mM Tris-HCl at pH 7.5, 150 mM NaCl, 1 mM EDTA, 1 mM EGTA, 1% NP40, 1% sodium deoxycholate, 1 mM Na3VO4, 2.5 mM sodium pyrophosphate, 1 mM 3-glycerophosphate, 1 μg/mL leupeptin, and a 1:1000 diluted protease inhibitor cocktail (Sigma). For immunoprecipitation studies, whole cell lysate lysates were centrifuged at 14,000×g and supernatants were precleared by incubation with Protein A/G-agarose beads for 2 h at 4° C. with rocking. Agarose beads were then pelleted by centrifugation at 1,000×g. FLAG-Arg2 in precleared lysates were immunoprecipitated by incubation overnight at 4° C. with rocking following addition of anti-FLAG antibody (10 μl). Immune complexes were eluted in 2×SDS sample buffer by boiling for 5 minutes before loading into SDS-PAGE. Western blotting analysis was performed by transferring the SDS gel onto a PVDF membrane and visualized using secondary antibodies conjugated to alkaline phosphatases.

Cn1c(/C=C/C(=O)NO)ccc1/C=C/C(=O)c1cccc(F)c1 [MC1658]
IC50 (HDAC1A): 0.1 µM
endothelial Arg2 expression, class-specific HDAC inhibitors (Arg2): no substantial effects
